In patent US8563553B2, “Compounds and compositions as protein kinase inhibitors” (Novartis AG, priority 2009, dated 2013) one finds IC50 data, which are given here for 3 compounds.

The test deals with b-Raf(V600E) (Homo sapiens (Human), UniProt P15056, V600E). The test is described as follows: Raf/Mek Amplified Luminescence Proximity Homogeneous Assay (Alpha Screen). In kind it is biochemical. The conditions noted are these: b-Raf(V600E) approximately 4 pM; biotinylated Mek, kinase dead approximately 10 nM; ATP 10 μM; pre-incubation 60 minutes; reaction 3 hours at room temperature; read-out: mut-B-RAF IC50. Summed up:
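Raf pre-incubated with compound and kinase-dead biotinylated Mek (~10 nM) for 60 min, room temperature, in 50 mM Tris pH 7.5, 15 mM MgCl2, 0.01% BSA, 1 mM DTT; ATP-started reaction 1 or 3 h, EDTA stop. Phospho-MEK detected by anti-p-MEK1/2 AlphaScreen; IC50 by non-linear regression.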

b-Raf(V600E), sequence (P15056 whole entry V600E): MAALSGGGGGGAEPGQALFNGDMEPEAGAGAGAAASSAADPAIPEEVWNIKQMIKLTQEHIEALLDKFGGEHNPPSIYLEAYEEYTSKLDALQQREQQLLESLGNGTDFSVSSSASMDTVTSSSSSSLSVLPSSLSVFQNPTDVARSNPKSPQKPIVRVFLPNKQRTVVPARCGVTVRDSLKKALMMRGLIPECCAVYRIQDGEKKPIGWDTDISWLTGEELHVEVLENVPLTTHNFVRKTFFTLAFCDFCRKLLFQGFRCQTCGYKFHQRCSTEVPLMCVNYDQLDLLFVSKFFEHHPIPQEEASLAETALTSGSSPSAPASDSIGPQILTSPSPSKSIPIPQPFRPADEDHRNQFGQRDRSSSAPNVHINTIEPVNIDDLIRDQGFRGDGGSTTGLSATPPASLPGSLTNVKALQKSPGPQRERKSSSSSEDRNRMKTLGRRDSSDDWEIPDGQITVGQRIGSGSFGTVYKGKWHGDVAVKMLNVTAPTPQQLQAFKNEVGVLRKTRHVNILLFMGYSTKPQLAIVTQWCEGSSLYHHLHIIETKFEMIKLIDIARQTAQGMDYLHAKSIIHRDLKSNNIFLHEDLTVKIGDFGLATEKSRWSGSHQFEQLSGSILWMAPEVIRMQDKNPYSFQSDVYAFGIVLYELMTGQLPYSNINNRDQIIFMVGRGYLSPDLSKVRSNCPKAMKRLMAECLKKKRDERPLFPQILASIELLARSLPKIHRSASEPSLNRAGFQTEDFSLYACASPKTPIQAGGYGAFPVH

As a reminder, the IC50 is the midpoint of a concentration-inhibition curve. Turning to `COC(=O)N[C@@H](C)CNc1nccc(-c2[nH]c(C3CC3)nc2-c2cc(F)cc(NS(C)(=O)=O)c2Cl)n1` [Example 5A, (S)-methyl 1-(4-(4-(2-chloro-5-fluoro-3-(methylsulfonamido)phenyl)-2-cyclopropyl-1H-imidazol-5-yl)pyrimidin-2-ylamino)propan-2-ylcarbamate], the IC50 is 0.4 nM. As for `COC(=O)N[C@@H](C)CNc1nccc(-c2[nH]c(C3CC3)nc2-c2cccc(NS(C)(=O)=O)c2F)n1` [Example 1U, (S)-Methyl 1-(4-(2-cyclopropyl-4-(2-fluoro-3-(methylsulfonamido)phenyl)-1H-imidazol-5-yl)pyrimidin-2-ylamino)propan-2-ylcarbamate], the figure is 0.55 nM; as for `CC(C)(C)c1nc(-c2cccc(NS(C)(=O)=O)c2Cl)c(-c2ccnc(N)n2)[nH]1` [Example 1BL, N-(3-(5-(2-Aminopyrimidin-4-yl)-2-tert-butyl-1H-imidazol-4-yl)-2-chlorophenyl)methanesulfonamide], 55 nM.
